# Assays:
# [1] = tested on: Staphylococcus aureus MRSA strain (USA300 isolate); experiment: Hemolysis Assay II (exotoxin-mediated lysis of rabbit red blood cells by culture filtrate); assay type: cell-based; conditions: Erythrocyte; for minimal effective concentration / IC95: 18 h; for minimal effective concentration: absorbance <2× the average of the complete inhibition control, read-out: Hemolysis assay II MEC (minimal effective concentration); for IC95: read-out: Hemolysis assay II IC95; for IC50: 18 h culture in CA-MHB, rabbit red blood cells
# [2] = tested on: MRSA (USA300 isolate); experiment: Hemolysis Assay I (exotoxin-mediated lysis of rabbit red blood cells by culture supernatant); assay type: cell-based, Staphylococcus aureus; conditions: 30/10/3.3/1.1/0.37 μM compound, values at OD600 of 0.75
# [3] = tested on: HepG2; conditions: human, 48 h
# [4] = tested on: psmα; assay type: cell-based, Staphylococcus aureus
# [5] = tested on: MRSA; experiment: MIC by broth microdilution in CA-MHB (CLSI); conditions: Staphylococcus aureus, 18 h, read-out: MIC on MRSA
# Method: Minimal inhibitory concentrations (MIC) were determined by broth microdilution method in cation-adjusted Mueller-Hinton (CA-MHB) broth according to the CLSI guideline. From an overnight culture plate, cells were resuspended in 0.9% (w/v) saline solution and bacterial inoculum was prepared in CA-MHB with 5×10^5 CFU/ml. Compounds were two-fold serially diluted in CA-MHB and 10 μL of this 10× concentrated samples were added into the 96-well plate. 90 μL of bacterial suspension was finally added to the compounds. Plates were covered and incubated without shaking at 35° C. for 18 hours. Every experiment contained an antibiotic as quality control. MIC was determined visually as the lowest concentration of a compound that prevents visible growth of the bacteria and the plates were scanned for documentation.
# [6] = tested on: RNAIII; assay type: cell-based, Staphylococcus aureus; conditions: 10 μM compound, two hours, MRSA (USA300 isolate), normalized to rpoD
# [7] = biological target: AgrAc (C-terminal domain of AgrA) (Staphylococcus aureus, UniProt P0A0I7); assay type: binding; conditions: 15N-AgrAc 100 μM, 1.6 mM compound
# From the text: 2D ^1H,^15N HSQC spectra were acquired at 298 K on a Bruker Avance IIIHD 600 MHz NMR spectrometer, equipped with a cryogenic triple resonance probe (Bruker, Karlsruhe, Germany). The proton chemical shifts were referenced using the methyl signal of sodium 3-trimethylsillyl-[2,2,3,3-d4]-propionate at 0 ppm. Spectra were processed with the Bruker TopSpin software package 3.5 and analyzed with the Sparky software. Assignments of AgrAc were deduced from the Biological Magnetic Resonance Bank (BMRB) entry 18598. Chemical shifts are reported in parts per million (δ) downfield from the internal standard tetramethylsilane (TMS). […]
# For each sample tested, 400 μL of 15N-AgrAc @ […] in [50 mM NaPi pH6.3; 100 mM NaCl 3 mM THP; 5% D20; + TMSP] were mixed with 13 μL of the stock solution of the compound (dissolved in DMSO-d6). […] The samples were analysed on the 600 MHz spectrometer with the sample changer. […]
# To produce ^15N-labeled C-terminal domain of AgrA (AgrAc), Escherichia coli BL21(DE3) cells were grown in a M9-based semi-rich medium: M9 medium supplemented with [^15N]—NH4Cl (1.5 g/liter), unlabeled D-glucose (4 g/liter), Isogro-^15N Powder-Growth medium (1 g/liter, 10%; Sigma-Aldrich). […] Elution of AgrAc was performed with a sharp gradient of imidazole (0-400 mM) and the fractions were analyzed by SDS-PAGE (4-20%). […] Protein concentration was estimated based on its UV absorbance at 280 nm.
# [8] = tested on: S. aureus; conditions: cited from earlier work
# [9] = tested on: red blood cell (RBC); conditions: cited from earlier work
# [10] = tested on: MRSA USA300 type strain; conditions: mice infected with a MRSA USA300 type strain, applied multiple times; cited from earlier work
# [11] = tested on: S. aureus; conditions: cited from earlier work; remark: listed apart in the source
# [12] = Staphylococcus aureus, Erythrocyte
# Chain of AgrAc (C-terminal domain of AgrA) (P0A0I7 143-238): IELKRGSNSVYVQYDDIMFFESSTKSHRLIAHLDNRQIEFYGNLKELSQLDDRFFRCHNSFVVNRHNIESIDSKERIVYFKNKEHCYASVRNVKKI
SMILES,minimal effective concentration [1],IC95 [1],IC50 [1],"IC50 [2, 12]",LD50 HepG2 [3],Downregulation of psmα expression at 10 μM [4],MIC [5],Downregulation of RNAIII expression at 10 μM [6],IC50 [2],Chemical shift perturbations upon binding to AgrAc [7],Viability of S. aureus [8],Exotoxin-induced red blood cell (RBC) lysis [9],Abscess size and dermo necrosis [10],Resistance after multiple passages [11]
"Cc1ccc(S(=O)(=O)c2nnn3c2[nH]c(=O)c2ccc(Cl)cc23)c(C)c1 [Compound 3, 8-chloro-3-(2,4-dimethylphenyl)sulfonyl-4H-triazolo[1,5-a]quinazolin-5-one]",4 µg/mL,3.45 µg/mL,1.65 µg/mL,5000 nM,>=100 μM,++ (++ downregulation>100-fold (2 log10)),≥ 100 µM,++ (++ downregulation>100-fold (2 log10)),–,–,–,–,–,–
"COc1ccc2c(=O)[nH]c3c(S(=O)(=O)c4ccc(C)cc4C)nnn3c2c1 [Compound 5, 3-(2,4-dimethylphenyl)sulfonyl-8-methoxy-4H-triazolo[1,5-a]quinazolin-5-one]",6 µg/mL,11.7 µg/mL,2.05 µg/mL,6000 nM,>=100 μM,++ (++ downregulation>100-fold (2 log10)),≥ 100 µM,+ (+ downregulation>10-fold (1 log10)),–,–,–,–,–,–
"COc1ccc2c(=O)[nH]c3c(S(=O)(=O)c4ccc(C)cc4Cl)nnn3c2c1 [Compound 12, 3-(2-chloro-4-methyl-phenyl)sulfonyl-8-methoxy-4H-triazolo[1,5-a]quinazolin-5-one]",3 µg/mL,2.75 µg/mL,0.85 µg/mL,~1000 nM,>=100 μM,++ (++ downregulation>100-fold (2 log10)),≥ 100 µM,++ (++ downregulation>100-fold (2 log10)),1300 nM,–,–,–,–,–
"COc1ccc2c(=O)[nH]c3c(S(=O)(=O)c4ccc(C)cc4Br)nnn3c2c1 [Compound 18, 3-(2-bromo-4-methyl-phenyl)sulfonyl-8-methoxy-4H-triazolo[1,5-a]quinazolin-5-one]",3 µg/mL,2.75 µg/mL,0.95 µg/mL,~1000 nM,>=100 μM,++ (++ downregulation>100-fold (2 log10)),≥ 100 µM,++ (++ downregulation>100-fold (2 log10)),800 nM,–,–,–,–,–
"COc1ccc2c(=O)[nH]c3c(S(=O)(=O)c4ccc(C)cc4C(F)(F)F)nnn3c2c1 [Compound 26, 8-methoxy-3-[4-methyl-2-(trifluoromethyl)phenyl]sulfonyl-4H-triazolo[1,5-a]quinazolin-5-one]",6 µg/mL,4.15 µg/mL,1 µg/mL,~1000 nM,>=100 μM,++ (++ downregulation>100-fold (2 log10)),≥ 100 µM,++ (++ downregulation>100-fold (2 log10)),700 nM,–,–,–,–,–
"Cc1ccc(S(=O)(=O)c2nnn3c2[nH]c(=O)c2ccccc23)c(C)c1 [Compound 34, 3-(2,4-dimethylphenyl)sulfonyl-4H-triazolo[1,5-a]quinazolin-5-one]",4 µg/mL,3.2 µg/mL,0.9 µg/mL,5000 nM,>=100 μM,++ (++ downregulation>100-fold (2 log10)),≥ 100 µM,++ (++ downregulation>100-fold (2 log10)),–,clearly show an interaction,–,–,–,–
"Cc1ccc(S(=O)(=O)c2nnn3c2[nH]c(=O)c2ccccc23)c(Cl)c1 [Compound 35, 3-(2-chloro-4-methyl-phenyl)sulfonyl-4H-triazolo[1,5-a]quinazolin-5-one]",4 µg/mL,3.7 µg/mL,1.25 µg/mL,1500 nM,>=100 μM,–,≥ 100 µM,–,–,–,–,–,–,–
"Cc1ccc(S(=O)(=O)c2nnn3c2[nH]c(=O)c2ccc(O)cc23)c(C)c1 [Compound 36, 3-(2,4-dimethylphenyl)sulfonyl-8-hydroxy-4H-triazolo[1,5-a]quinazolin-5-one]",4 µg/mL,4.5 µg/mL,1.7 µg/mL,2800 nM,>=100 μM,–,≥ 100 µM,–,–,–,–,–,–,–
"Cc1ccc(S(=O)(=O)c2nnn3c2[nH]c(=O)c2ccccc23)c(Br)c1 [Compound 37, 3-(2-Bromo-4-methyl-phenyl)sulfonyl-4H-triazolo[1,5-a]quinazolin-5-one]",4 µg/mL,3.65 µg/mL,1.25 µg/mL,1500 nM,>=100 μM,–,≥ 100 µM,–,–,–,–,–,–,–
"COc1cccc2c1c(=O)[nH]c1c(S(=O)(=O)c3ccc(C)cc3C)nnn12 [Compound 39, 3-(2,4-dimethylphenyl)sulfonyl-6-methoxy-4H-triazolo[1,5-a]quinazolin-5-one]",4 µg/mL,3.25 µg/mL,0.8 µg/mL,800 nM,>=100 μM,–,≥ 100 µM,–,–,–,–,–,–,–
"Cc1ccc(S(=O)(=O)c2nnn3c2[nH]c(=O)c2ccc(OCC4COC(C)(C)O4)cc23)c(C)c1 (stereo not drawn) [Compound 60, 8-[(2,2-dimethyl-1,3-dioxolan-4-yl)methoxy]-3-(2,4-dimethylphenyl)sulfonyl-4H-triazolo[1,5-a]quinazolin-5-one]",3 µg/mL,3.05 µg/mL,1 µg/mL,–,>=100 μM,–,≥ 100 µM,–,–,–,–,–,–,–
"CC(C)c1ccc(S(=O)(=O)c2nnn3c2nc(O)c2ccccc23)cc1 [Savirin, reference compound]",8 µg/mL,7.8 µg/mL,2.6 µg/mL,15000 nM,>=100 μM,+ (key: 0=downregulation between 0 and 10-fold; + downregulation>10-fold (1 log10); ++ downregulation>100-fold (2 log10)),≥ 100 µM,0 (0=downregulation between 0 and 10-fold),–,–,without affecting viability,inhibited,significant reduction,No resistance was developed
